Experimental data reported in patent US10501451B2, “Selective NR2B antagonists” (BRISTOL-MYERS SQUIBB COMPANY, priority 2015, dated 2019).
Like-named read-outs stand apart in the source and are kept apart here.

How the values were obtained:
[1] = biological target: brain-resident NR2B-subtype receptors (Mus musculus (Mouse), UniProt P35438+Q01097); experiment: Ex vivo occupancy assay; format: in vivo; details: iv, mouse
Protocol: Ex Vivo Occupancy Assay. […] 7-9 weeks old male CD-1 mice were dosed intravenously in a vehicle consisting of 10% dimethylacetamide, 40% PEG-400, 30% hydroxypropyl betacyclodextrin, and 30% water with experimental compounds and the forebrains were harvested 15 minutes post-dosing by decapitation. The brain samples were immediately snap-frozen and stored at −80° C. On the following day, the dosed brain samples were thawed on ice for 15-20 minutes followed by homogenization using Polytron for 10 seconds in cold homogenization buffer composed of 50 mM KH2PO4 (pH adjusted to 7.4 with KOH), 1 mM EDTA, 0.005% Triton X 100 and protease inhibitor cocktail (Sigma Aldrich). The crude homogenates were further homogenized using a Dounce homogenizer and the homogenized membrane aliquots from all animals were flash-frozen and stored at −80° C. until further use. The whole homogenization process was performed on ice. For determining occupancy, the membrane homogenates were first thawed on ice and then needle-homogenized using a 25 gauge needle. The homogenized membrane (6.4 mg/ml) was added to a 96-well plate followed by addition of ^3H Ro 25-6981 (6 nM). The reaction mixture was incubated for 5 minutes on a shaker at 4° C. and then harvested onto GF/B filter plates (treated with 0.5% PEI for 1 hr at room temperature). The filter plates were dried at 50° C. for 20 mins, incubated with microscint 20 for 10 minutes and read on TopCount (Perkin Elmer). Each dose or compound group consisted of 4-5 animals. The control group of animals was dosed with vehicle alone. Membrane from each animal was added in triplicates to the assay plate. Non-specific binding was determined using 10 μM Ro 25-6981 added to the wells containing membrane homogenates from vehicle-dosed animals. Specific counts/minute was converted to % occupancy at each dose of a compound for each animal using the following equation: […]
Drug levels were determined by mass spectroscopy in the usual manner. Drug levels in the blood plasma were 572 nM in at this dose, and drug levels in the homogenized brain tissue were 863 nM.

[2] = biological target: NR2B-subtype NMDA receptors (Rattus norvegicus (Rat), UniProt P35439+Q00960); experiment: Radioligand binding assay (3H Ro 25-6981 competition, rat forebrain membranes); details: 3H Ro 25-6981 (4 nM)
NR2B-subtype NMDA receptors, sequence (Q00960 27-1482, other chains not shown): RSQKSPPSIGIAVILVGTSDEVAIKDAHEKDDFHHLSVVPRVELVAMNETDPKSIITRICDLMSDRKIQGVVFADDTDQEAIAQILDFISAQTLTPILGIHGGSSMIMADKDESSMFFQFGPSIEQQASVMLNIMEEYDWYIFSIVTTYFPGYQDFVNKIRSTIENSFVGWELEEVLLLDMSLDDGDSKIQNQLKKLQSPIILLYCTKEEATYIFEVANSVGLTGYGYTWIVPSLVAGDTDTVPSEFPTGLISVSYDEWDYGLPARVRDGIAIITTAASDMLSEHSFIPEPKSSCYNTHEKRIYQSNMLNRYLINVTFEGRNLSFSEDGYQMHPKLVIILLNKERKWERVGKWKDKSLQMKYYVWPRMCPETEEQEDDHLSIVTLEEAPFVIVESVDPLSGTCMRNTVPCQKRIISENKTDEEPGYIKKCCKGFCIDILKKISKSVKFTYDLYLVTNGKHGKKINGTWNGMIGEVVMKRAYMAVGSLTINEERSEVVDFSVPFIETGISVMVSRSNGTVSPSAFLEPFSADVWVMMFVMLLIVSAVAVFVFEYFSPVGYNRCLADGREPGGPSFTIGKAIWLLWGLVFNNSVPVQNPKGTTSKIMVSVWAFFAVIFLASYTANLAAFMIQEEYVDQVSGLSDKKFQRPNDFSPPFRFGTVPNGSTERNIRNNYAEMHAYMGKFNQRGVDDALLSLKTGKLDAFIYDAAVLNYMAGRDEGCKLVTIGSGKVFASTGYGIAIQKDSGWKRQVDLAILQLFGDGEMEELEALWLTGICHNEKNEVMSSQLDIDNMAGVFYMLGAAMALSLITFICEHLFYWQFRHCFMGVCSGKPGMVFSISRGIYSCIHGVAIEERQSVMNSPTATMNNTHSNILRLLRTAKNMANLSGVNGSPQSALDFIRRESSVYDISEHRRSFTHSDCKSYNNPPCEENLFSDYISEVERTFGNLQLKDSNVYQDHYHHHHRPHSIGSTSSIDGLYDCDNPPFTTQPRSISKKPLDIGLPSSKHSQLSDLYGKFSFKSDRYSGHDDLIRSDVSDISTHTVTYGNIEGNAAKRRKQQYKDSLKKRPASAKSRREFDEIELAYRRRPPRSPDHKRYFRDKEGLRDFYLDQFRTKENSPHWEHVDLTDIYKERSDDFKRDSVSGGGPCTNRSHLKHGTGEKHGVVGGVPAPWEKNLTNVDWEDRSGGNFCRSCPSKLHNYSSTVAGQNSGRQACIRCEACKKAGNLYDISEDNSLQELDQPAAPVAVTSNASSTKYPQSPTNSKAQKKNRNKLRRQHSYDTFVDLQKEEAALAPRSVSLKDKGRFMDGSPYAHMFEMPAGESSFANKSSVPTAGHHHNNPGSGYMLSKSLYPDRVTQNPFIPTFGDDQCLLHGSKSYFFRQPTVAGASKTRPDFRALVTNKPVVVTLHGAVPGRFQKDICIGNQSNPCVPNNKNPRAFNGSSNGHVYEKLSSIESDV
Protocol: Radioligand Binding Assay. Binding experiments to determine binding to NR2B-subtype NMDA receptors were performed on forebrains of 8-10 weeks old male Sprague Dawley rats (Harlan, Netherlands) using ^3H Ro 25-6981 (Mutel V; Buchy D; Klingelschmidt A; Messer J; Bleuel Z; Kemp J A; Richards J G. Journal of Neurochemistry, 1998, 70(5):2147-2155. Rats were decapitated without anesthesia using a Guillotine (approved by animal ethics committee) and the harvested brains were snap-frozen and stored at −80° C. for 3-6 months for membrane preparation.
For membrane preparation, rat forebrains were thawed on ice for 20 minutes in homogenization buffer composed of 50 mM KH2PO4 (pH adjusted to 7.4 with KOH), 1 mM EDTA, 0.005% Triton X 100 and protease inhibitor cocktail (Sigma Aldrich). Thawed brains were homogenized using a Dounce homogenizer and centrifuged at 48000×g for 20 min. The pellet was resuspended in cold buffer and homogenized again using a Dounce homogenizer. Subsequently, the homogenate was aliquoted, snap-frozen and stored at −80° C. for not more than 3-4 months.
To perform the competition binding assay, thawed membrane homogenate was added to each well of a 96-well plate (20 μg/well). The experimental compounds were serially diluted in 100% DMSO and added to each row of the assay plate to achieve desired compound concentrations, keeping the DMSO concentration in the assay plate at 1.33% of the final reaction volume. Next, ^3H Ro 25-6981 (4 nM) was added to the assay plate. After incubation for 1 hr at room temperature, the membrane bound radioligand was harvested on to GF/B filter plates (treated with 0.5% PEI for 1 hr at room temperature). The filter plates were dried at 50° C. for 20 mins, incubated with microscint 20 for 10 minutes and finally, the counts were read on TopCount (Perkin Elmer).

[3] = system: mice; experiment: Mouse Forced Swim Test (mFST); format: in vivo; details: 1 mg/Kg i.v., 15 min before 6 min swim session
Protocol: Mouse Forced Swim Test (mFST). Forced Swim Test (FST) is an animal model used to assess antidepressant compounds in preclinical studies. The FST was performed similar to the method of Porsolt et al. with modifications (Porsolt R D, Bertin A, Jalfre M. Behavioral despair in mice: a primary screening test for antidepressants. Arch Int Pharmacodyn Thér 1977; 229:327-36). In this paradigm, mice are forced to swim in an inescapable cylinder filled with water. Under these conditions, mice will initially try to escape and eventually develop immobility behavior; this behavior is interpreted as a passive stress-coping strategy or depression-like behavior. […] The duration of immobility was evaluated during the total 6 min of the test and expressed as duration (sec) of immobility. […] All testing sessions were recorded with a video camera (Sony Handicam, Model: DCR-HC38E; PAL) and scoring was done using the Forced Swim Scan, Version 2.0 software (Clever Systems Inc., Reston, Va., USA; see Hayashi E, Shimamura M, Kuratani K, Kinoshita M, Hara H. Automated experimental system capturing three behavioral components during murine forced swim test. Life Sci. 2011 Feb. 28; 88(9-10):411-7 and Yuan P, Tragon T, Xia M, Leclair C A, Skoumbourdis A P, Zheng W, Thomas C J, Huang R, Austin C P, Chen G, Guitart X. Phosphodiesterase 4 inhibitors enhance sexual pleasure-seeking activity in rodents. […]

brain-resident NR2B-subtype receptors, sequence (Q01097 27-1482, other chains not shown): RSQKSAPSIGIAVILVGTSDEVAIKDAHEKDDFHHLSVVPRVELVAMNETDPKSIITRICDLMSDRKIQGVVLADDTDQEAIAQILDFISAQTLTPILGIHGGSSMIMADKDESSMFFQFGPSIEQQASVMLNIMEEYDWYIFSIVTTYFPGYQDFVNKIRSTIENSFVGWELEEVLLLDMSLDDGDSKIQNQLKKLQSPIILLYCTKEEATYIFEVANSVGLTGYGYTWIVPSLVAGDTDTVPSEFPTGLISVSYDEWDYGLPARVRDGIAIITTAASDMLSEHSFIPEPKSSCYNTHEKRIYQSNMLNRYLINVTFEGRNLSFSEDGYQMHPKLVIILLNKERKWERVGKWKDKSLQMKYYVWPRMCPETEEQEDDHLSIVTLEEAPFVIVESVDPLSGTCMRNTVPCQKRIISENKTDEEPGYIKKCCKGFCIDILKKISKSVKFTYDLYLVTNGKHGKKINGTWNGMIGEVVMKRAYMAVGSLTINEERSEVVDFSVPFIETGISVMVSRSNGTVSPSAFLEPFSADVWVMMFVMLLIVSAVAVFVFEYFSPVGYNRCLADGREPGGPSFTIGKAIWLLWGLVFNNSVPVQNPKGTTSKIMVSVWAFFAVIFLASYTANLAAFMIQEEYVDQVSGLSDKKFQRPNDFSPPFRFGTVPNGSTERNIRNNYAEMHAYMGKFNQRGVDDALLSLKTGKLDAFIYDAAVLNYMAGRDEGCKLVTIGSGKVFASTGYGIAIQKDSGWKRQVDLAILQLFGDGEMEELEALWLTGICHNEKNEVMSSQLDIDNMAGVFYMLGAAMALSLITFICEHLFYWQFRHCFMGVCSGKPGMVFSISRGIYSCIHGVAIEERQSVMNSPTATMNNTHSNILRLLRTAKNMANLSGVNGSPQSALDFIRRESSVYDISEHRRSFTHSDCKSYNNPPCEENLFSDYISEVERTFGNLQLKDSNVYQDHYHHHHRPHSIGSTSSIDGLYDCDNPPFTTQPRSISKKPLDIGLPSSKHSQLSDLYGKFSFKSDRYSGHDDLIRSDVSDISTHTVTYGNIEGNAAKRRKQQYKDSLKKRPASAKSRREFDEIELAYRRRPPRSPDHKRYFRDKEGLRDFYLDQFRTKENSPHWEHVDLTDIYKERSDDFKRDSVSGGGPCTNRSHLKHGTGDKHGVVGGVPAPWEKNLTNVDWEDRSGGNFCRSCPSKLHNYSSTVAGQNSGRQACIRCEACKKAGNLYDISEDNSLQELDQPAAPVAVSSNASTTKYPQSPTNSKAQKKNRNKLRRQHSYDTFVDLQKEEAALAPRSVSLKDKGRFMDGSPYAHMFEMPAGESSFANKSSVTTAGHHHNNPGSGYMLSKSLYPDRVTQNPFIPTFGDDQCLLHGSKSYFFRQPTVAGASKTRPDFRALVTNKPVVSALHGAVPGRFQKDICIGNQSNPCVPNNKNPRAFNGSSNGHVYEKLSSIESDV

receptor occupancy at 1 mg/kg ([1]; 1 mg/Kg i.v., forced swim test animals): 69% | receptor occupancy at 3 mg/kg ([1]; 3 mg/Kg i.v., forebrain harvested 15 minutes post-dosing): 94% | Ki ([2]; listed as 10, P-1, read-out: NR2B Binding Ki): 3.2 nM | Ki ([2]; read-out: binding Ki): 3.2 nM
SMILES: Cc1ccc(CN2OCC(N3CCN(c4ccc(O)cn4)CC3)C2=O)cc1 (single isomer, unassigned) [Example 10, P-1, 4-(4-(5-hydroxypyridin-2-yl)piperazin-1-yl)-2-(4-methylbenzyl)isoxazolidin-3-one]
immobility time [3]: statistically significant decrease
